PMC10741037, “A Peptoid-Chelator Selective to Cu^2+ That Can Extract Copper from Metallothionein-2 and Lead to the Production of ROS” (Antioxidants, 2023)

Test: Kinetics of ascorbate consumption assay (ROS production)
Format: biochemical
Conditions: MT-2 + Cu2+ + Asc; [MT-2] = 1.6 μM, [Cu2+] = 9 μM, [Asc] = 100 μM, HEPES 10 mM pH = 7.4, absorbance at 265 nm
Procedure: Reagents, except the peptoid and protein, were commercially available and were used as received. All the solutions were prepared in milliQ water (resistance: 18.2 MΩ) immediately before experiments. A stock solution of HEPES buffer was prepared at 500 mm, pH = 7.4, and then diluted to 10 mM. Sodium ascorbate was prepared at 5 mm each day because of the quick degradation of the ascorbate. All pH values are given with a ±0.2 pH unit error. UV/Vis kinetics and ROS kinetic experiments were recorded with a spectrophotometer Agilent Cary 60 UV/Vis spectrophotometer (Agilent Technologies, Mulgrave, Australia), a double-beam, Czerny–Turner monochromator with external stirrer of cuvette holder, in 1 cm path-length quartz cuvettes, with 800 rpm stirring. The samples were prepared from stock solutions of MT-2, TB, Cu^2+, diluted to 1.6, 10, and 9 µM, respectively, in 10 mM HEPES solution, pH = 7.4. Ascorbate was diluted to 100 µM. […]
First, we investigated whether CuTB can produce ROS by itself. In a typical experiment, 1 equiv. of TB was mixed with 0.9 equiv. of Cu^2+ in HEPES buffer (10 mM, pH = 7.4) in a quartz cuvette under aerobic conditions, and after the formation of the metallopeptoid was confirmed by the stability of its UV/Vis spectrum, sodium ascorbate (Asc) was added to the cuvette and the changes in the absorbance at 265 nm were monitored by UV/Vis (ε = 14,500 M^−1 cm^−1). […]

## CuMT-2: complex of metallothionein-2 (MT-2) with 6 equiv. of Cu2+
  ascorbate consumption / redox activity: redox silent
